Assay results taken from patent US20140315975A1, “APOPTOSIS-INDUCING AGENT” (NITTO DENKO CORPORATION, priority 2011, published 2014).

How the values were obtained:
Type in all cases: cell-based
Raf-1 = assay: Immunoprecipitation of Raf-1 and anti-ubiquitin western blot; details: M7609 cells
Method: In the same way as for Example 1 (3), on the 2nd day after siRNA transfection culturing was carried out for 16 hours in a serum-free medium, and a cell extract was collected. The cell extract thus obtained was subjected to quantitative protein analysis using a Micro BCA Protein Assay Kit (Scramble siRNA: 8.88 μg/μL, GST-π siRNA: […]). 0.5 μg of the cell extract was mixed with anti-Raf-1 antibody conjugated to Dynabeads Protein G (Invitrogen), incubation was carried out at 4° C. for 2 hours while gently mixing in a shaker to thus isolate Raf-1 protein, and then a western blot analysis was carried out in the same way as for Example 1 (3) using an anti-ubiquitin antibody (Santa Cruz). Phosphorylation modification of Ser621, which is involved in inhibition of Raf-1 proteasome degradation, was investigated in the same manner using an anti-p-Raf-1 (Ser621) antibody (MILLIPORE).

[1] = test system: EGFR/PI3K/Akt/mTOR signal cascade; assay: Western blot of EGFR/PI3K/Akt/mTOR signal; details: M7609 cells, compared with Scramble siRNA (FIG. 11)
Method: Expression of each protein constituting the EGFR/PI3K/Akt/mTOR signal cascade was analyzed in the same way as for Example 1 (1), (2), and (4) except that, as primary antibodies, anti-p-EGFR (Tyr1068) antibody (Cell Signaling), anti-EGFR antibody (Santa Cruz), anti-p-PI3K p85 (Tyr458)/p55 (Tyr199) antibody (Cell Signaling), anti-PI3K, p85 antibody (MILLIPORE), anti-p-Akt (Ser473) antibody (Cell Signaling), anti-Akt antibody (Cell Signaling), anti-p-p70S6K (Thr389) antibody (Cell Signaling), anti-p-p70S6K (Thr421/Ser424) antibody (Cell Signaling), and anti-p70S6K antibody (Cell Signaling) were used.

[2] = test system: K-RAS mutation-positive colon carcinoma cell line M7609; assay: Total cell count after siRNA transfection (hemocytometer); details: after culturing for 4 days, versus no suppression (FIG. 1b)
Method: K-RAS mutation-positive colon carcinoma cell line M7609 was cultured in 10% fetal bovine serum (FBS)-containing RPMI-1640 medium at 37° C. under an atmosphere containing 5% CO2. Furthermore, 100 U/mL penicillin and 100 μg/mL streptomycin were added as antibiotics to the medium.
On the day before transfection, M7609 cells were plated on a 100 mm plastic tissue culture dish using 10% FBS-containing RPMI-1640 medium containing no antibiotic so as to give 1×10^6 cells/10 mL. 600 pmol of GST-π siRNA (SEQ ID No: 1: […], siRNA ID#2385, Ambion) was added to 1 mL of Opti-MEM I Reduced Serum Medium (GIBCO) and mixed gently. […] On the 1st, 2nd, 3rd, and 4th days after transfection with GST-π siRNA, the number of cells was counted, and knockdown of GST-π was examined. Knockdown of GST-π was analyzed by a western blot method as described below.
Western blot analysis of GST-π knockdown was carried out using cells harvested at above-mentioned each point of time after transfection with GST-π siRNA. […] The cell extract thus obtained was subjected to quantitative protein analysis using a Micro BCA Protein Assay Kit (Thermo SCIENTIFIC) (GST-π siRNA transfectant: 4.35 μg/μL, Scramble siRNA transfectant: 4.56 μg/μL). […] A reaction with a chemiluminescent substrate was then carried out at room temperature for 1 min., and then this chemiluminescence was detected using an X-ray film. […]

LC3 = assay: Autophagy induction by LC3 western blotting; details: M7609 cells, western blot with anti-LC3 antibody (FIG. 8)
Method: Induction of autophagy in GST-π knockdown cells was further analyzed by a western blot analysis of LC3. GST-π knockdown cells obtained by the procedure of Example 1 (2) were plated on a cover slip placed in a 35 mm plastic tissue culture dish so as to give 1×10^5 cells/2 mL. After incubating for a predetermined time, a cell extract was collected and subjected to a western blot analysis. A reaction with a transfer membrane was carried out at 4° C. for 16 hours using anti-LC3B antibody (SIGMA) as a primary antibody. Detection of LC3 molecules was carried out using a chemoluminescent reagent after a reaction with HRP-labeled secondary antibody. Whether or not autophagy was induced was evaluated by a shift of LC3 from type I (18 kDa) to type II (16 kDa).

GST-π siRNA: GST-π siRNA (SEQ ID No: 1: GGGAGGCAAGACCUUCAUUTT, siRNA ID#2385, Ambion) (chemistry not given here)
ubiquitination of Raf-1 (Raf-1; 2nd day after transfection, compared with Scramble siRNA (FIG. 3)): enhanced
expression of Raf protein and Ser621 phosphorylated Raf protein (p-Raf-1 (S621)) (Raf-1; Raf-1 immunoprecipitate (FIG. 3)): decreased slightly
phosphorylation of each protein constituting the EGFR/PI3K/Akt/mTOR signal cascade [1]: reduced
number of cells [2]: markedly less
expression of type II LC3 (LC3): markedly increased
